Here are results for two compounds from patent US20240350450A1, “COMPOSITION COMPRISING a-KE[…] (a-KG) AND 5-HYDROXYMETHYL-2-FURFURAL (5-HMF) TO IMPROVE HEMOGLOBIN-MEDIATED OXYGEN SUPPLY” (CYL GmbH, priority 2021, published 2024).

The target in series [1] is T1, hemoglobin (Hb) (Homo sapiens, UniProt P68871+P69905).
T1 construct: Venous blood was collected from 20 healthy subjects (ten women, ten men) aged 18 to 40 years; from tissue; host or cells: human venous whole blood (erythrocytes) of healthy volunteers
Put plainly: in vitro high-throughput determination of oxygen dissociation curves (ODC) in whole blood samples. The class given is biochemical. The settings on record: for Hill coefficient (HC) / P50 / Hb oxygen binding affinity (Hb-O2 affinity): human whole blood, low, medium and high dosage, 37° C., 40 mmHg PCO2. As for the experimental part: Venous blood was collected from 20 healthy subjects (ten women, ten men) aged 18 to 40 years. […] Immediately after blood collection, blood gas analysis was performed (ABL800 flex, radiometer) and samples were stored on ice and processed within eight hours.
The recommended maximum daily dose of 5-HMF of Sanopal® (Cyl, Austria) is 720 mg. Assuming its total distribution in the blood volume of a 70 kg person to be approximately 5000 ml (16), the low dose of 5-HMF was defined as 0.14 mg/ml ([…]).
To ensure stable conditions during the ODC measurement, the measurement setup was set up in an environmentally controlled, closed device (EC box). This box is temperature-controlled (37° C.) and contains the experimental setup consisting of a humidifier, a cover for the microplate reader, tubes and valves. A modified 96-well plate was used (a special coating process ensures a thin, yet adherent layer of red blood cells for optimal fluorescence measurement), which enabled a constant gas flow across all wells in a meandering gas flow channel. The measuring plate is integrated into a gas system consisting of gas bags, gas hoses, humidifiers, gas mixers and a peristaltic pump.
The blood samples were placed in the individual wells using a special stamping technique so that a film consisting of a few cell layers could form. Oxygen saturation was measured in each well using dual-wavelength spectroscopy and oxygen partial pressure was measured using the fluorescence lifetime of commercial oxygen sensors at the inlet and outlet ports of the measuring plate. An oxygen ramp of around 20% by volume to 0% by volume was formed, so that a dissociation curve can be measured. The measurements were carried out every minute in a conventional fluorescence plate reader, so that up to 92 samples of whole blood could be analyzed within ˜25 min.
For the ODC experiments, gas mixtures containing 40 mmHg PCO2 were used, and the temperature was kept constant at 37° C.
The statistical analysis was performed using IBM SPSS Statistics 25. The unpaired t-test was used to analyze baseline differences between substance compositions. ANOVA with repeated measures design was used to determine P50 and HC differences between the different dosages and substance compositions.
Post-hoc t-test (Bonferroni-corrected) and ANOVA with repeated measures design were used for each individual substance or a combination of two substances to identify the location and magnitude of changes. Linear regression analysis was used to determine the concentration dependence for each substance. P<0.05 was considered significant. Data are presented as mean±SD.

The test system of series [2] is severe hypoxia. The settings on record: animal model of severe hypoxia; cited from earlier work.
Series [3] concerns hypoxia. The settings on record: pigs exposed to hypoxia; cited from earlier work.
For series [4] the following is noted: 143 mg/kg 5-HMF, animal studies; cited from earlier work.
Series [5] relates to HbO2 affinity. To be noted: human subjects exposed to hypoxia, sickle cell anemia patients; cited from earlier work.

“Also recorded” adds a separate entry of the source.

T1 sequence (P69905 2-142 limits assumed): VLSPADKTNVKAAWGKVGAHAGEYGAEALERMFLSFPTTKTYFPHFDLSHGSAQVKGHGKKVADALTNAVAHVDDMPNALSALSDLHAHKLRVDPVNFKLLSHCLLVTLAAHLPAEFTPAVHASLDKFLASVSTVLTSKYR
T1 sequence (P68871 2-147 limits assumed): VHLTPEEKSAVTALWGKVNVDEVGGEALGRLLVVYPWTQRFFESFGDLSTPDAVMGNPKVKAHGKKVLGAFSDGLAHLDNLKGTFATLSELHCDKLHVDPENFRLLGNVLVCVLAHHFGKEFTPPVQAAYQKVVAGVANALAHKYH

Regarding `O=C(O)CCC(=O)C(=O)O` [α-KG, α-ketoglutaric acid], in series [1], the “Hill coefficient (HC)” value is on record as “altered” and the “P50 / Hb oxygen binding affinity (Hb-O2 affinity)” value is on record as “altered P50”. The “dose dependence of P50” value in series [1] (linear regression over low, medium, high dose) is “lowest effect”.
In the case of `O=Cc1ccc(CO)o1` [5-HMF, 5-hydroxymethyl-2-furfural], in series [2], the “hemodynamic stability and microvascular oxygenation” value is “protect against hemodynamic instability and maintain microvascular oxygenation”. In series [3], the “arterial oxygen saturation (SO2)” value is reported as “improved arterial oxygen saturation” and the “hypoxia-associated increase in pulmonary arterial pressure” value is given as “attenuation”. For the same compound, the adverse effects result in series [4] is “increase in serum gamma globulin levels and the relative spleen weight”. For the same compound, the HbO2 affinity result in series [5] is “increases in HbO2 affinity were detected”. Moreover, in series [1], the “Hill coefficient (HC)” value is reported as “significantly changed” and the “P50 / Hb oxygen binding affinity (Hb-O2 affinity)” value is on record as “strong dose-dependent increase in Hb-O2 affinity; also recorded: significantly changed P50; also recorded: strong dose-dependent increase in HbO2 affinity; also recorded: significant reduction in the P50”.
